Test results taken from patent publication US9399626B2, “2-thiopyrimidinones” (Pfizer Inc., priority 2011, dated 2016).

Target: T1, MPO (purified from human polynuclear leukocytes) (Homo sapiens, UniProt P05164)
T1 construct: purified from human polynuclear leukocytes; purchased Calbiochem/EMD Biosciences; host or cells: human polynuclear leukocytes (natural source)
Test: MPO Amplex Red Activity Assay
Type: biochemical
Settings: Table 1A, 2 μM H2O2, pH 7.4
Outline: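 Potency is given as kinact/KI: kobs values from 600 s progress curves, minus the uninhibited rate, are fit against inhibitor concentration. Reactions use 2 μM H2O2, 30 μM Amplex Red, pH 7.4 phosphate buffer with NaCl, DTPA and 2% DMSO, started with […] human MPO. Readout is resorufin fluorescence, catalase background subtracted.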

T1 sequence (P05164 279-745 limits assumed): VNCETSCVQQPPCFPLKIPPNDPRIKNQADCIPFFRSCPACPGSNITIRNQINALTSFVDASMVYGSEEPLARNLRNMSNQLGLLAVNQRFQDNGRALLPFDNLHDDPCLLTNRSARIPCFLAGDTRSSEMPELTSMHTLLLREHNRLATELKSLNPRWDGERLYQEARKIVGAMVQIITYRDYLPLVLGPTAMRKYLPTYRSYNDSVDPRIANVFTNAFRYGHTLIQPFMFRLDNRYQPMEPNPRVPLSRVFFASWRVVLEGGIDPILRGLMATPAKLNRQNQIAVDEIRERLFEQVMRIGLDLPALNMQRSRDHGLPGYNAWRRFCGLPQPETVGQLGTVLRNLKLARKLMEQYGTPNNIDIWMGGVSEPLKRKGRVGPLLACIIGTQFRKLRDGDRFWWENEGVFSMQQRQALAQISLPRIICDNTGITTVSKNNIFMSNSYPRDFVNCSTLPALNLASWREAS
T1 sequence (P05164 165-273 limits assumed): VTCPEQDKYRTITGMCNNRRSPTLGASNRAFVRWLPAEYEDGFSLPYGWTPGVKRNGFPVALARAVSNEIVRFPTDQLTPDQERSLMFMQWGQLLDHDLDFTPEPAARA

SMILES	MPO kinact/Ki
COc1ccc(Cl)cc1-c1cc(=O)[nH]c(=S)n1CCCNC(=N)NCC(C)(F)F [Example 451, 1-{3-[6-(5-chloro-2-methoxyphenyl)-4-oxo-2-thioxo-3,4-dihydropyrimidin-1(2H)-yl]propyl}-3-(2,2-difluoropropyl)guanidine]	16000 1/s per M
COc1ccc(-c2cc(=O)[nH]c(=S)n2CCNC(=O)NC(=N)N)c(OC)c1 [Example 452, 1-carbamimidoyl-3-{2-[6-(2,4-dimethoxyphenyl)-4-oxo-2-thioxo-3,4-dihydropyrimidin-1(2H)-yl]ethyl}urea]	11600 1/s per M
COc1ccc(-c2cc(=O)[nH]c(=S)n2CC(F)(F)CN=C(N)N)c(OC)c1 [Example 453, 2-{3-[6-(2,4-dimethoxyphenyl)-4-oxo-2-thioxo-3,4-dihydropyrimidin-1(2H)-yl]-2,2-difluoropropyl}guanidine]	27800 1/s per M
